# Results published in US10654828B2 (NOVARTIS AG, priority 2017, dated 2020).
# Like-named read-outs stand apart in the source and are kept apart here.
# Assays:
# [1] = test system: AKT; experiment: AKT activation: Phospho-AKT (Ser473) antibody staining in reporter cells; assay type: cell-based; conditions: U2OS GFP-FoxO3a H212R cells, serum starved overnight, compound 30 minutes, total cellular intensity of Phospho-AKT (Ser473) staining, DMSO control 0%
# Protocol: (§1) Phosphorylation of AKT on S473 and FoxO3a nuclear to cytoplasmic translocation were used as readouts of PI3K/Akt/mTOR pathway activation downstream of growth factor signaling.
# (§2) Reporter cell line. U2OS GFP-FoxO3a H212R reporter cell line was established by transducing U2OS cells with the retroviral plasmid pLEGFP-C1 containing FoxO3a H212R transgene and selecting for G418 resistant clones.
# (§3) Reporter assay. U2OS GFP-FoxO3a H212R cells were plated in 384-well plates at 4000 cells per well in 30 microliters of McCoy's 5 A medium containing 10% FBS. On day 1 the cells were washed with serum free medium and serum starved overnight. On day 2 the cells were treated with different doses of the compounds for 30 minutes, fixed with 4% Paraformaldehyde for 1 hour and stained with Phospho-AKT (Ser473) antibody (Cell Signaling Technology, catalog #4060) overnight at 4 degrees Celsius. After nuclei staining with Hoechst 33342 (Life Technologies, catalog # H3570) the plates were imaged with InCell 2000 (GE Healthcare Bio-Sciences). FoxO3a inhibition activity is calculated as the ratio of nuclear to cytosolic GFP intensity in percent. AKT activation is measured as the total cellular intensity of Phospho-AKT antibody staining in percent. DMSO control is set as 0% activity.
# [2] = test system: FoxO3a; experiment: FoxO3a inhibition: GFP-FoxO3a nuclear to cytoplasmic translocation reporter assay; assay type: cell-based; conditions: U2OS GFP-FoxO3a H212R cells, serum starved overnight, compound 30 minutes, ratio of nuclear to cytosolic GFP intensity, DMSO control 0%, read-out: FoxO AC50
# Protocol: as §1, §2, §3
SMILES,"AC50 ([1]; Homo sapiens, U2OS, 0.5 h) [nM]","AC50 ([2]; Homo sapiens, U2OS, 0.5 h) [nM]",AC50 [1] [nM],AC50 [2] [nM]
"Cc1cc(C(N)=O)nn1-c1ccc2c(ccn2Cc2ccc(C3=CCC4(CC3)CN(C)C4)cc2)c1 [Example 15-3, 5-methyl-1-(1-(4-(2-methyl-2-azaspiro[3.5]non-6-en-7-yl)benzyl)-1H-indol-5-yl)-1H-pyrazole-3-carboxamide]",398,96,–,–
"Cc1cc(C(N)=O)nn1-c1ccc2c(ccn2Cc2ccc(C3=CCN(C)C(C)(C)C3)cc2)c1 [Example 15-1, 5-methyl-1-(1-(4-(1,2,2-trimethyl-1,2,3,6-tetrahydropyridin-4-yl)benzyl)-1H-indol-5-yl)-1H-pyrazole-3-carboxamide]",391,242,–,–
"Cc1cc(C(N)=O)nn1-c1ccc2c(ccn2Cc2ccc(-c3ccc(C(C)(C)O)nc3)cc2)c1 [Example 30-3, 1-(1-(4-(6-(2-hydroxypropan-2-yl)pyridin-3-yl)benzyl)-1H-indol-5-yl)-5-methyl-1H-pyrazole-3-carboxamide]",572,126,–,–
"Cc1cc(C(N)=O)nn1-c1ccc2c(ccn2Cc2ccc([C@@H]3C[C@@H]4CN(CCS(C)(=O)=O)C[C@@H]4C3)cc2)c1 [Example 42, 5-Methyl-1-(1-(4-((3aR,5r,6aS)-2-(2-(methylsulfonyl)ethyl)octahydrocyclopenta[c]pyrrol-5-yl)benzyl)-1H-indol-5-yl)-1H-pyrazole-3-carboxamide]",230,69,–,–
"Cc1cc(C(N)=O)nn1-c1ccc2c(ccn2Cc2ccc(-c3ccc(S(=O)(=O)CCN(C)C)cc3)cc2)c1 [Example 19-3, 1-(1-((4′-((2-(dimethylamino)ethyl)sulfonyl)-[1,1′-biphenyl]-4-yl)methyl)-1H-indol-5-yl)-5-methyl-1H-pyrazole-3-carboxamide]",128,99,–,–
"Cc1cc(C(N)=O)nn1-c1ccc2c(ccn2Cc2ccc(C3=CCN4CCCC3C4)cc2)c1 (single isomer, unassigned) [Example 14, 1-(1-(4-(1-azabicyclo[3.3.1]non-3-en-4-yl)benzyl)-1H-indol-5-yl)-5-methyl-1H-pyrazole-3-carboxamide]",–,–,2100,652
"Cc1cc(C(N)=O)nn1-c1ccc2c(ccn2Cc2ccc(C3CCCNC3)cc2)c1 (stereo not shown) [Example 2-4, 5-methyl-1-(1-(4-(piperidin-3-yl)benzyl)-1H-indol-5-yl)-1H-pyrazole-3-carboxamide]",1630,429,–,–
"COc1cc(-c2ccc(Cn3ccc4cc(-n5nc(C(N)=O)cc5C)ccc43)cc2)ccn1 [Example 1-24, 1-(1-(4-(2-methoxypyridin-4-yl)benzyl)-1H-indol-5-yl)-5-methyl-1H-pyrazole-3-carboxamide]",349,123,–,–
"Cc1cc(C(N)=O)nn1-c1ccc2c(ccn2Cc2ccc(-c3ccc4cc[nH]c4c3)cc2)c1 [Example 1-21, 1-(1-(4-(1H-indol-6-yl)benzyl)-1H-indol-5-yl)-5-methyl-1H-pyrazole-3-carboxamide]",2970,420,–,–
"Cc1cc(C(N)=O)nn1-c1ccc2c(c1)c(C1=CCNCC1)cn2Cc1ccc(-c2ccc(S(C)(=O)=O)cc2)cc1 [Example 21, 5-methyl-1-(1-((4′-(methylsulfonyl)-[1,1′-biphenyl]-4-yl)methyl)-3-(1,2,3,6-tetrahydropyridin-4-yl)-1H-indol-5-yl)-1H-pyrazole-3-carboxamide]",1650,598,–,–
"Cc1cc(C(N)=O)nn1-c1ccc2c(ccn2Cc2ccc(-c3ccc(C(C)(C)O)cn3)cc2)c1 [Example 30-2, 1-(1-(4-(5-(2-hydroxypropan-2-yl)pyridin-2-yl)benzyl)-1H-indol-5-yl)-5-methyl-1H-pyrazole-3-carboxamide]",320,223,–,–
"Cc1cc(C(N)=O)nn1-c1ccc2c(ccn2Cc2ccc(-c3ccc(O)c(F)c3)cc2)c1 [Example 1-15, 1-(1-((3′-fluoro-4′-hydroxy-[1,1′-biphenyl]-4-yl)methyl)-1H-indol-5-yl)-5-methyl-1H-pyrazole-3-carboxamide]",172,56,–,–
"Cc1cc(C(N)=O)nn1-c1ccc2c(ccn2Cc2ccc(-c3ccc4c(c3)CC(=O)N4)cc2)c1 [Example 1-31, 5-methyl-1-(1-(4-(2-oxoindolin-5-yl)benzyl)-1H-indol-5-yl)-1H-pyrazole-3-carboxamide]",138,55,–,–
"Cc1cc(C(N)=O)nn1-c1ccc2c(ccn2Cc2ccc([C@@H]3C[C@@H]4CN(C)C[C@@H]4C3)cc2)c1 [Example 26-1, 5-methyl-1-(1-(4-((3aR,5r,6aS)-2-methyloctahydrocyclopenta[c]pyrrol-5-yl)benzyl)-1H-indol-5-yl)-1H-pyrazole-3-carboxamide]",314,95,–,–
"Cc1cc(C(N)=O)nn1-c1ccc2c(ccn2Cc2ccc(-c3cnc4c(c3)OCCN4C)cc2)c1 [Example 1-9, 5-methyl-1-(1-(4-(4-methyl-3,4-dihydro-2H-pyrido[3,2-b][1,4]oxazin-7-yl)benzyl)-1H-indol-5-yl)-1H-pyrazole-3-carboxamide]",318,109,–,–
"Cc1cc(C(N)=O)nn1-c1ccc2c(ccn2Cc2ccc(-c3ccc(C#N)cc3)cc2)c1 [Example 1-5, 1-(1-((4′-cyano-[1,1′-biphenyl]-4-yl)methyl)-1H-indol-5-yl)-5-methyl-1H-pyrazole-3-carboxamide]",> 10000,285,–,–
"Cc1cc(C(N)=O)nn1-c1ccc2c(ccn2Cc2ccc(NC3CCN(C)C3)cc2)c1 (single isomer, unassigned) [Example 37-1, 5-Methyl-1-(1-(4-((1-methylpyrrolidin-3-yl)amino)benzyl)-1H-indol-5-yl)-1H-pyrazole-3-carboxamide]",4790,724,–,–
"Cc1cc(C(N)=O)nn1-c1ccc2c(ccn2Cc2ccc(C3CCN(C)CC3(C)C)cc2)c1 (single isomer, unassigned) [Example 16-3, 5-methyl-1-(1-(4-(1,3,3-trimethylpiperidin-4-yl)benzyl)-1H-indol-5-yl)-1H-pyrazole-3-carboxamide]",–,–,3190,1040
"Cc1cc(C(N)=O)nn1-c1ccc2c(ccn2Cc2ccc(C3CCN(CCCN)CC3)cc2)c1 [Example 8, 1-(1-(4-(1-(3-aminopropyl)piperidin-4-yl)benzyl)-1H-indol-5-yl)-5-methyl-1H-pyrazole-3-carboxamide]",–,466,–,–
"Cc1cc(C(N)=O)nn1-c1ccc2c(ccn2Cc2ccc(-c3ccncc3)cc2)c1 [Example 1-2, 5-methyl-1-(1-(4-(pyridin-4-yl)benzyl)-1H-indol-5-yl)-1H-pyrazole-3-carboxamide]",–,102,–,–
"Cc1cc(C(N)=O)nn1-c1ccc2c(c1)c(CCCO)cn2Cc1ccc([C@@H]2C[C@@H]3CN(C)C[C@@H]3C2)cc1 [Example 38, 1-(3-(3-hydroxypropyl)-1-(4-((3aR,5r,6aS)-2-methyloctahydrocyclopenta[c]pyrrol-5-yl)benzyl)-1H-indol-5-yl)-5-methyl-1H-pyrazole-3-carboxamide]",–,81,–,–
"CC(=O)NCCCN1CCC(c2ccc(Cn3ccc4cc(-n5nc(C(N)=O)cc5C)ccc43)cc2)CC1 [Example 9, 1-(1-(4-(1-(3-acetamidopropyl)piperidin-4-yl)benzyl)-1H-indol-5-yl)-5-methyl-1H-pyrazole-3-carboxamide]",–,301,–,–
